Values after ≈ are worked out from the molar mass of the structure shown. Counter-ions that a name gives are not always drawn. Like-named read-outs stand apart in the source and are kept apart here.
What was measured:
Type in all cases: cell-based
[1] = system: Klebsiella pneumoniae (ATCC 33495); assay: MIC determination, microbroth dilution; conditions: ATCC33495
[2] = system: M. tuberculosis clinical isolates; assay: microbe, parasite or virus in culture; conditions: Mycobacterium tuberculosis
[3] = system: live vaccine strain (LVS) of Francisella tularensis; assay: microbe, parasite or virus in culture; conditions: Francisella tularensis, read-out: MIC F.t.
[4] = system: Stenotrophomonas maltophilia (ATCC 13637); assay: MIC determination, microbroth dilution
[5] = system: Bacillus anthracis, Sterne 34F2; assay: microbe, parasite or virus in culture; conditions: STERNE34F2, read-out: MIC B.a.
[6] = system: Proteus mirabilis (ATCC 25933); assay: MIC determination, microbroth dilution; conditions: ATCC25933
[7] = system: Legionella pneumophila (ATCC 33153); assay: microbe, parasite or virus in culture; conditions: ATCC33153, 72 h, read-out: Zone of inhibition L.p.
Yersinia pestis = assay: microbe, parasite or virus in culture; conditions: read-out: MIC Y.p.
[8] = system: Neisseria gonorrhoeae (ATCC 49226); assay: Agar MIC determination (Alamar Blue); conditions: ATCC49226, agar MIC, read-out: MIC N.g.
[9] = system: Pseudomonas aeruginosa (PA01); assay: MIC determination, microbroth dilution
[10] = system: MRSA, Staphylococcus aureus (NRS70); assay: MIC determination, microbroth dilution; conditions: Staphylococcus aureus (NRS70); read-out: MIC MRSA
[11] = system: Streptococcus pneumoniae (R6); assay: MIC determination, microbroth dilution
[12] = system: Haemophilus influenza (ATCC 49247); assay: microbe, parasite or virus in culture
Listeria monocytogenes = assay: MIC determination (Table 6)
[13] = system: Streptococcus pneumoniae clinical isolates representing several serotypes; assay: MIC determination, Streptococcus pneumoniae panel of clinical isolates (Table 7); conditions: Streptococcus pneumoniae
[14] = system: Escherichia coli (ATCC 700926); assay: MIC determination, microbroth dilution; conditions: ATCC700926; Escherichia coli (ATCC 700926); read-out: MIC E.c.
[15] = system: Proteus vulgaris (ATCC 33420); assay: MIC determination, microbroth dilution; conditions: ATCC33420
[16] = system: Streptococcus pyogenes (ATCC 700294); assay: MIC determination, microbroth dilution; conditions: ATCC700294; Streptococcus pyogenes (ATCC 700294); read-out: MIC S. py.
E. coli K12 ΔtolC = assay: microbe, parasite or virus in culture; conditions: Escherichia coli, read-out: MIC E.c. Δtolc
Moraxella catarrhalis = assay: MIC determination (Table 6)
Bacillus anthracis = assay: microbe, parasite or virus in culture; conditions: read-out: MIC B.a.
[17] = system: acinetobacter baumannii (ATCC 19606); assay: MIC determination, microbroth dilution; conditions: ATCC19606
[18] = system: Neisseria meningitides (ATCC 13077); assay: Disc diffusion assay; conditions: ATCC13077, 4 μg per disc, read-out: Zone of inhibition N.m.
[19] = system: Enterococcus faecalis (ATCC 33186); assay: MIC determination, microbroth dilution; conditions: ATCC33186; Enterococcus faecalis (ATCC 33186); read-out: MIC E.f.
[20] = system: Neisseria gonorrhoeae (ATCC 49226); assay: Disc diffusion assay; conditions: ATCC49226, 4 μg per disc, read-out: Zone of inhibition N.g.
[21] = system: Bacillus subtilis (ATCC 23857); assay: MIC determination, microbroth dilution; conditions: ATCC23857; Bacillus subtilis (ATCC 23857); read-out: MIC B.s.
[22] = system: Burkholderia cepacia (ATCC 25416); assay: MIC determination, microbroth dilution
[23] = system: Staphylococcus aureus (ATCC 29213); assay: MIC determination, microbroth dilution; conditions: ATCC29213; Staphylococcus aureus (ATCC 29213); read-out: MIC S.a.

Compound: CN[C@@H]1[C@H](O)[C@H](NC)[C@H]2O[C@@]3(O)C(=O)C[C@@H](C)O[C@H]3O[C@@H]2[C@H]1O [SPC, (2R,4aR,5aR,6S,7S,8R,9S,9aR,10aS)-4a,7,9-trihydroxy-2-methyl-6,8-bis(methylamino)decahydro-4H-benzo[b]pyrano[2,3-e][1,4]dioxin-4-one, reference compound]
- MIC [1]: > 200 µg/mL
- MIC ([2]; H37RV, read-out: MIC H37Rv): 100 µg/mL (≈ 301 µM)
- MIC ([2]; read-out: MIC TN022): 200 µg/mL (≈ 602 µM)
- MIC ([2]; read-out: MIC TN026): 200 µg/mL (≈ 602 µM)
- MIC [3]: 12.5 to 25 µg/mL (≈ 37.6 to 75.2 µM)
- MIC ([4]; ATCC13637, Stenotrophomonas maltophilia (ATCC 13637), read-out: MIC S.m.): 50 to 200 µg/mL (≈ 150 to 602 µM)
- MIC [5]: 25 µg/mL (≈ 75.2 µM)
- MIC [6]: > 200 µg/mL
- zone of inhibition at 4 µg/disc [7]: 0 mm
- MIC (Yersinia pestis): 12.5 µg/mL (≈ 37.6 µM)
- MIC [8]: 50 µg/mL (≈ 150 µM)
- MIC [9]: 50 to 100 µg/mL (≈ 150 to 301 µM)
- MIC [10]: > 200 µg/mL
- MIC ([11]; Streptococcus pneumoniae, read-out: MIC R6): 12.5 µg/mL (≈ 37.6 µM)
- MIC ([11]; Streptococcus pneumoniae, read-out: MIC S. pn.): 12.5 µg/mL (≈ 37.6 µM)
- zone of inhibition at 4 µg/disc ([12]; Haemophilus, ATCC49247, read-out: Zone of inhibition H.i.): 11 to 13 mm
- MIC (Listeria monocytogenes): 25 to 50 µg/mL (≈ 75.2 to 150 µM)
- MIC ([13]; BAA1407, read-out: MIC BAA-1407): 12.5 µg/mL (≈ 37.6 µM)
- MIC ([13]; read-out: MIC D39X): 12.5 µg/mL (≈ 37.6 µM)
- MIC ([13]; read-out: MIC Daw9): 12.5 µg/mL (≈ 37.6 µM)
- MIC ([13]; read-out: MIC OVA6): 12.5 µg/mL (≈ 37.6 µM)
- MIC ([13]; read-out: MIC T4X): 12.5 µg/mL (≈ 37.6 µM)
- MIC ([13]; S. pneumoniae A66.1x, Drug Susceptible, read-out: MIC A66.1x): 6.3 µg/mL (≈ 19 µM)
- MIC ([13]; S. pneumoniae BHN97x, Drug Susceptible, read-out: MIC BHN97x): 6.3 µg/mL (≈ 19 µM)
- MIC ([13]; S. pneumoniae Daw7, PenG Resistant, read-out: MIC Daw7): 25 µg/mL (≈ 75.2 µM)
- MIC ([13]; S. pneumoniae Daw8, PenG Resistant, read-out: MIC Daw8): 25 µg/mL (≈ 75.2 µM)
- MIC ([13]; S. pneumoniae Daw62, PenG Resistant, read-out: MIC Daw62): 25 µg/mL (≈ 75.2 µM)
- MIC ([13]; S. pneumoniae Daw64, PenG Resistant, read-out: MIC Daw64): 25 µg/mL (≈ 75.2 µM)
- MIC [14]: 25 to 50 µg/mL (≈ 75.2 to 150 µM)
- MIC [15]: 50 µg/mL (≈ 150 µM)
- MIC [16]: 25 µg/mL (≈ 75.2 µM)
- MIC (E. coli K12 ΔtolC): 3.1 to 12.5 µg/mL (≈ 9.33 to 37.6 µM)
- MIC (Moraxella catarrhalis): 3.1 to 6.3 µg/mL (≈ 9.33 to 19 µM)
- MIC (Bacillus anthracis): 25 µg/mL (≈ 75.2 µM)
- MIC [17]: > 200 µg/mL
- zone of inhibition at 4 µg/disc [18]: 13 to 14 mm
- MIC [19]: 50 to 100 µg/mL (≈ 150 to 301 µM)
- zone of inhibition at 4 µg/disc [20]: 11 to 13 mm
- MIC [21]: 25 µg/mL (≈ 75.2 µM)
- MIC ([22]; ATCC25416, Burkholderia cepacia (ATCC 25416), read-out: MIC B.c.): 50 to 100 µg/mL (≈ 150 to 301 µM)
- MIC B.c. ([22]; Burkholderia cepacia, Table 6): 50 to 100 µg/mL

Compound: CN[C@@H]1[C@H](O)[C@H](NC)[C@H]2O[C@]3(O)[C@H](O[C@@H]2[C@H]1O)O[C@H](C)C[C@@]3(O)CNCc1ccc(F)c(F)c1 [compound 12, 3′-(R)-3′-[(3,4-difluoro)benzylaminomethyl)]dihydrospectinomycin Trihydrochloride]
- MIC [1]: > 200 µg/mL
- MIC ([2]; H37RV, read-out: MIC H37Rv): 50 µg/mL
- MIC [3]: 3.1 to 6.3 µg/mL
- MIC ([4]; Stenotrophomonas maltophilia, ATCC13637, read-out: MIC S.m.): 12.5 to 25 µg/mL
- MIC [5]: 50 µg/mL
- MIC [6]: > 200 µg/mL
- MIC (Yersinia pestis): 200 µg/mL
- MIC [8]: 25 to 50 µg/mL
- MIC [9]: ≥ 200 µg/mL
- MIC [10]: 200 µg/mL
- MIC ([11]; Streptococcus pneumoniae (R6), read-out: MIC S. pn.): 6.3 µg/mL
- zone of inhibition at 4 µg/disc ([12]; ATCC49247, Haemophilus influenza, 4 μg per disc, range of at least two experiments, read-out: Zone of inhibition H.i.): 16 to 17 mm
- MIC (Listeria monocytogenes): 6.3 to 12.5 µg/mL
- MIC [23]: 100 to 200 µg/mL
- MIC [14]: 25 to 50 µg/mL
- MIC [15]: > 200 µg/mL
- MIC [16]: 3.1 µg/mL
- MIC (E. coli K12 ΔtolC): 12.5 to 25 µg/mL
- MIC (Moraxella catarrhalis): 6.3 to 12.5 µg/mL
- MIC (Bacillus anthracis): 50 µg/mL
- MIC [17]: ≥ 200 µg/mL
- zone of inhibition at 4 µg/disc [18]: 17 mm
- MIC [19]: 50 µg/mL
- zone of inhibition at 4 µg/disc [20]: 15 to 17 mm
- MIC [21]: 25 to 50 µg/mL
- MIC ([22]; Burkholderia cepacia, ATCC25416, read-out: MIC B.c., Burkholderia cepacia (ATCC 25416)): ≥ 200 µg/mL
- MIC ([22]; Burkholderia cepacia, ATCC25416, read-out: MIC B.c., Burkholderia cepacia, Table 6): ≥ 200 µg/mL
